The target in assay [1] is T1, human histamine H4 receptor (Homo sapiens, UniProt Q9H3N8).
T1 construct: purchased PerkinElmer Inc; host or cells: CHO-K1
In words: Evaluation of Human H4 Receptor Affinity ([3H]histamine binding). To be noted: inhibition constant Ki, CHO-K1 membrane preparation, read-out: Evaluation of H4 Receptor Affinity. In outline: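 Membranes from CHO-K1 cells expressing human H4 receptor incubated with 8.2 nM [3H]histamine and compound for 90 min at 25 °C in 50 mM Tris-HCl pH 7.4, 1.25 mM EDTA, then filtered and counted. Nonspecific binding defined with 1.0 μM histamine; Ki from IC50 by Cheng-Prusoff using Kd 5.7 nM.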

For assay [2], the target named is human histamine H1 receptor (Homo sapiens, UniProt P35367). In words: Evaluation of Human H1 Receptor Affinity ([3H]pyrilamine binding). Set-up: purchased PerkinElmer Inc; host or cells: CHO-K1. The conditions noted are these: inhibition constant Ki, CHO-K1 membrane preparation. In outline:
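Ki values are Cheng-Prusoff conversions of IC50 (Kd 1.1 nM) from radioligand displacement of 1.2 nM [3H]pyrilamine, with 1.0 μM pyrilamine defining nonspecific binding.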

Where a name gives a salt, the structure may show the parent alone.

T1 sequence (Q9H3N8 whole entry): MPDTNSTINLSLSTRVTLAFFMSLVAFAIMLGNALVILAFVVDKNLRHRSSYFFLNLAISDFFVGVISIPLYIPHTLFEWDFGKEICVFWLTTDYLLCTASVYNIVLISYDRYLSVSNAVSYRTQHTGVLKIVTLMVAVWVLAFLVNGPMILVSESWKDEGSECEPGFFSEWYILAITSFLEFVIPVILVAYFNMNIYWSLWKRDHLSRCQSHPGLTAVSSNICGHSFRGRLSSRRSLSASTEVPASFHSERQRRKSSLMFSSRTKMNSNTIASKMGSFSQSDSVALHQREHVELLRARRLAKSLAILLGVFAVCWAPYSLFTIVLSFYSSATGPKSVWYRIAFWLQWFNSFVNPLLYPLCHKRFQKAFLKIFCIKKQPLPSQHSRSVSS
human histamine H1 receptor, sequence (P35367 whole entry): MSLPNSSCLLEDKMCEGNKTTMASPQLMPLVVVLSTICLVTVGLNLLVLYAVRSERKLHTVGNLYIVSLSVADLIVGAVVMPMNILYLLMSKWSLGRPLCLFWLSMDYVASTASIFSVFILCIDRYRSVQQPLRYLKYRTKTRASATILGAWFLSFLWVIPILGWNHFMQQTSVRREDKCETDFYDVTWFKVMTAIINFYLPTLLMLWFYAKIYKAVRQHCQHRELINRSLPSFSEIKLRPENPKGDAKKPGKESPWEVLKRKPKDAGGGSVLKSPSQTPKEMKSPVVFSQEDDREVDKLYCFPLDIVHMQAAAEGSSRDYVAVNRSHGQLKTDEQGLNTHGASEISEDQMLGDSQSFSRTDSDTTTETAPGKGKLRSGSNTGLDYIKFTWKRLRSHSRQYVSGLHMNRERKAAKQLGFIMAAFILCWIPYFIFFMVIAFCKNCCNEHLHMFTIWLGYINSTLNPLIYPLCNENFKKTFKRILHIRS

For `Nc1nc2c(c(N3CCN(CCCCn4cc(C(=O)O)cn4)CC3)n1)CCc1cc(OCc3ccc(Cl)cc3)ccc1-2` [Example 132, 1-(4-(4-(2-amino-8-((4-chlorobenzyl)oxy)-5,6-dihydrobenzo[h]quinazolin-4-yl)piperazin-1-yl)butyl)-1H-pyrazole-4-carboxylic acid dihydrochloride], the Ki in assay [1] is 100 to 500 nM; in assay [2], < 100 nM.

Regarding `Nc1nc2c(c(N3CCN(CCOCCn4cc(C(=O)O)cn4)CC3)n1)CCc1cc(OCc3ccc(Cl)cc3)ccc1-2` [Example 133, 1-(2-(2-(4-(2-amino-8-((4-chlorobenzyl)oxy)-5,6-dihydrobenzo[h]quinazolin-4-yl)piperazin-1-yl)ethoxy)ethyl)-1H-pyrazole-4-carboxylic acid dihydrochloride], the Ki in assay [1] and in assay [2] was < 100 nM throughout.

With `Nc1nc2c(c(N3CCN(CCCCOc4ccc(C(=O)O)cc4)CC3)n1)CCc1cc(OCc3ccc(Cl)cc3)ccc1-2` [Example 134, 4-(4-(4-(2-amino-8-((4-chlorobenzyl)oxy)-5,6-dihydrobenzo[h]quinazolin-4-yl)piperazin-1-yl)butoxy)benzoic acid hydrochloride], the Ki in assay [1] was 100 to 500 nM; in assay [2] it was < 100 nM.

With `Nc1nc2c(c(N3CCN(CCOc4ccccc4CC(=O)O)CC3)n1)CCc1cc(OCc3ccc(Cl)cc3)ccc1-2` [Example 136, 2-(2-(2-(4-(2-amino-8-((4-chlorobenzyl)oxy)-5,6-dihydrobenzo[h]quinazolin-4-yl)piperazin-1-yl)ethoxy)phenyl)acetic acid dihydrochloride], the Ki in assay [1] is 100 to 500 nM; in assay [2], < 100 nM.

As to `Nc1nc2c(c(N3CCN(CCOc4ccc(CC(=O)O)cc4)CC3)n1)CCc1cc(OCc3ccc(Cl)cc3)ccc1-2` [Example 137, 2-(4-(2-(4-(2-amino-8-((4-chlorobenzyl)oxy)-5,6-dihydrobenzo[h]quinazolin-4-yl)piperazin-1-yl)ethoxy)phenyl)acetic acid dihydrochloride], the Ki in assay [1] and in assay [2] was < 100 nM each time.

As to `Nc1nc2c(c(N3CCN(CCOCCn4ccc(C(=O)O)n4)CC3)n1)CCc1cc(OCc3ccc(Cl)cc3)ccc1-2` [Example 138, 1-(2-(2-(4-(2-amino-8-((4-chlorobenzyl)oxy)-5,6-dihydrobenzo[h]quinazolin-4-yl)piperazin-1-yl)ethoxy)ethyl)-1H-pyrazole-3-carboxylic acid dihydrochloride], the Ki is 100 to 500 nM in assay [1] and < 100 nM in assay [2].

In the case of `Nc1nc2c(c(N3CCN(CCc4cccc(OCC(=O)O)c4)CC3)n1)CCc1cc(OCc3ccc(Cl)cc3)ccc1-2` [Example 139, 2-(3-(2-(4-(2-amino-8-((4-chlorobenzyl)oxy)-5,6-dihydrobenzo[h]quinazolin-4-yl)piperazin-1-yl)ethyl)phenoxy)acetic acid dihydrochloride], the Ki was 100 to 500 nM in assay [1] and < 100 nM in assay [2].

On to `Nc1nc2c(c(N3CCN(CCc4ccc(OCC(=O)O)cc4)CC3)n1)CCc1cc(OCc3ccc(Cl)cc3)ccc1-2` [Example 140, 2-(4-(2-(4-(2-amino-8-((4-chlorobenzyl)oxy)-5,6-dihydrobenzo[h]quinazolin-4-yl)piperazin-1-yl)ethyl)phenoxy)acetic acid dihydrochloride], for which the figures for the Ki in assay [1] and in assay [2] were 100 to 500 nM and < 100 nM, respectively.

On to `Nc1nc2c(c(N3CCN(CCCCOC4CC(C(=O)O)C4)CC3)n1)CCc1cc(OCc3ccc(Cl)cc3)ccc1-2` (centres unmarked) [Example 141, 3-(4-(4-(2-amino-8-((4-chlorobenzyl)oxy)-5,6-dihydrobenzo[h]quinazolin-4-yl)piperazin-1-yl)butoxy)cyclobutane-1-carboxylic acid dihydrochloride], for which the values for the Ki in assay [1] and in assay [2] were 100 to 500 nM and < 100 nM, respectively.

As to `Nc1nc2c(c(N3CCN(CCOCc4nc(C(=O)O)cs4)CC3)n1)CCc1cc(OCc3ccc(OC(F)(F)F)cc3)ccc1-2` [Example 142, 2-((2-(4-(2-amino-8-((4-(trifluoromethoxy)benzyl)oxy)-5,6-dihydrobenzo[h]quinazolin-4-yl)piperazin-1-yl)ethoxy)methyl)thiazole-4-carboxylic acid dihydrochloride], the Ki in assay [1] and in assay [2] was < 100 nM throughout.

For `Nc1nc2c(c(N3CCN(CCCOCc4nnn[nH]4)CC3)n1)CCc1cc(OCc3ccc(Cl)cc3)ccc1-2` [Example 144, 4-(4-(3-((tetrazol-5-yl)methoxy)propyl)piperazin-1-yl)-8-((4-chlorobenzyl)oxy)-5,6-dihydrobenzo[h]quinazolin-2-amine bis(trifluoroacetate)], the Ki in assay [1] and in assay [2] was < 100 nM each time.

Regarding `Nc1nc2c(c(N3CCN(CCCCOCc4nnn[nH]4)CC3)n1)CCc1cc(OCc3ccc(Cl)cc3)ccc1-2` [Example 145, 4-(4-(4-((tetrazol-5-yl)methoxy)butyl)piperazin-1-yl)-8-((4-chlorobenzyl)oxy)-5,6-dihydrobenzo[h]quinazolin-2-amine bis(trifluoroacetate)], the Ki in assay [1] and in assay [2] was < 100 nM each time.

For `Nc1nc2c(c(N3CCN(CCO[C@H]4C[C@@H]5[C@H](C4)[C@H]5C(=O)O)CC3)n1)CCc1cc(OCc3ccc(OC(F)(F)F)cc3)ccc1-2` [Example 146, (1R,3r,5S,6r)-3-(2-(4-(2-amino-8-((4-(trifluoromethoxy)benzyl)oxy)-5,6-dihydrobenzo[h]quinazolin-4-yl)piperazin-1-yl)ethoxy)bicyclo[3.1.0]hexane-6-carboxylic acid], the Ki in assay [1] is 100 to 500 nM; in assay [2] it was < 100 nM.

For `Nc1nc2c(c(N3CCN(CCO[C@@H]4C[C@@H]5[C@H](C4)[C@H]5C(=O)O)CC3)n1)CCc1cc(OCc3ccc(OC(F)(F)F)cc3)ccc1-2` [Example 147, (1R,3s,55,6r)-3-(2-(4-(2-amino-8-((4-(trifluoromethoxy)benzyl)oxy)-5,6-dihydrobenzo[h]quinazolin-4-yl)piperazin-1-yl)ethoxy)bicyclo[3.1.0]hexane-6-carboxylic acid], the Ki in assay [1] and in assay [2] was < 100 nM in each case.

Take `Nc1nc2c(c(N3CCN(CCO[C@@H]4C[C@@H]5[C@H](C4)[C@@H]5C(=O)O)CC3)n1)CCc1cc(OCc3ccc(OC(F)(F)F)cc3)ccc1-2` [Example 148, (1R,3s,5S,6s)-3-(2-(4-(2-amino-8-((4-(trifluoromethoxy)benzyl)oxy)-5,6-dihydrobenzo[h]quinazolin-4-yl)piperazin-1-yl)ethoxy)bicyclo[3.1.0]hexane-6-carboxylic acid]: the Ki in assay [1] was 100 to 500 nM; in assay [2] it was < 100 nM.

In the case of `COC(=O)CC1CN(C(=O)OCCN2CCN(c3nc(N)nc4c3CCc3cc(OCc5ccc(Cl)cc5)ccc3-4)CC2)C1` [Example 149, 2-(4-(2-amino-8-((4-chlorobenzyl)oxy)-5,6-dihydrobenzo[h]quinazolin-4-yl)piperazin-1-yl)ethyl 3-(2-methoxy-2-oxoethyl)azetidine-1-carboxylate], the results for the Ki in assay [1] and in assay [2] were 100 to 500 nM and < 100 nM, respectively.

For the compound `COC(=O)C1CN(C(=O)OCCN2CCN(c3nc(N)nc4c3CCc3cc(OCc5ccc(Cl)cc5)ccc3-4)CC2)C1` [Example 150, 1-(2-(4-(2-amino-8-((4-chlorobenzyl)oxy)-5,6-dihydrobenzo[h]quinazolin-4-yl)piperazin-1-yl)ethyl) 3-methyl azetidine-1,3-dicarboxylate], the Ki is 100 to 500 nM in assay [1] and < 100 nM in assay [2].

For the compound `Nc1nc2c(c(N3CCN(CCOCC45C6C7C4C4C5C6C74C(=O)O)CC3)n1)CCc1cc(OCc3ccc(Cl)cc3)ccc1-2` (centres unmarked) [Example 151, 4-((2-(4-(2-amino-8-((4-chlorobenzyl)oxy)-5,6-dihydrobenzo[h]quinazolin-4-yl)piperazin-1-yl)ethoxy)methyl)pentacyclo[4.2.0.0^2.5.0^3.8.0^4.7]octane-1-carboxylic acid dihydrochloride], the Ki in assay [1] and in assay [2] was < 100 nM each time.

Take `Nc1nc2c(c(N3CCN(CCOC4CC4C(=O)O)CC3)n1)CCc1cc(OCc3ccc(Cl)cc3)ccc1-2` (centres unmarked) [Example 154, 2-(2-(4-(2-amino-8-((4-chlorobenzyl)oxy)-5,6-dihydrobenzo[h]quinazolin-4-yl)piperazin-1-yl)ethoxy)cyclopropane-1-carboxylic acid]: the Ki in assay [1] was 100 to 500 nM; in assay [2], < 100 nM.

Regarding `Cn1cc(COCCN2CCN(c3nc(N)nc4c3CCc3cc(OCc5ccc(Cl)cc5)ccc3-4)CC2)cc1C(=O)O` [Example 156, 4-((2-(4-(2-amino-8-((4-chlorobenzyl)oxy)-5,6-dihydrobenzo[h]quinazolin-4-yl)piperazin-1-yl)ethoxy)methyl)-1-methyl-1H-pyrrole-2-carboxylic acid hydrochloride], the Ki in assay [1] and in assay [2] was < 100 nM each time.

`Nc1nc2c(c(N3CCN(CCOC45CCC(C(=O)O)(CC4)CC5)CC3)n1)CCc1cc(OCc3ccc(Cl)cc3)ccc1-2` [Example 157, 4-(2-(4-(2-amino-8-((4-chlorobenzyl)oxy)-5,6-dihydrobenzo[h]quinazolin-4-yl)piperazin-1-yl)ethoxy)bicyclo[2.2.2]octane-1-carboxylic acid hydrochloride]: the Ki in assay [1] and in assay [2] was < 100 nM each time.

Consider `CC12CCC(C(=O)O)(CC1OCCN1CCN(c3nc(N)nc4c3CCc3cc(OCc5ccc(Cl)cc5)ccc3-4)CC1)C2(C)C` (centres unmarked) [Example 158, 3-(2-(4-(2-amino-8-((4-chlorobenzyl)oxy)-5,6-dihydrobenzo[h]quinazolin-4-yl)piperazin-1-yl)ethoxy)-4,7,7-trimethylbicyclo[2.2.1]heptane-1-carboxylic acid hydrochloride], for which the Ki in assay [1] was 100 to 500 nM; in assay [2], < 100 nM.

For the origin of these results see patent publication US20190047966A1, “NOVEL COMPOUND AND PHARMACOLOGICALLY ACCEPTABLE SALT THEREOF” (MEIJI SEIKA PHARMA CO., LTD., priority 2016, published 2019).
